Values of other authors in patent US20240016419A1, “ELECTROCHEMICAL GLUCOSE SENSING BY EQUILIBRIUM GLUCOSE BINDING TO GENETICALLY ENGINEERED GLUCOSE BINDING PROTEINS” (Cercacor Laboratories, Inc., priority 2022, published 2024).

binding constant shift (A213R versus wild-type GGBP, from 0.2 μM to 1 mM): 5000 fold
Kd (binding to glucose, read-out: binding constant): 1000 µM
Substance: A213R: GGBP with Alanine residue at the 213 position changed to an Arginine residue
